Source: US20260256790A1, “DEBIO-0123 IN COMBINATION WITH TEMOZOLOMIDE AND RADIOTHERAPY FOR USE IN TREATING GLIOMA” (Debiopharm International S.A., priority 2023, published 2026)
Several values for one entry are separate records, joined by “and”; a condition that tells them apart may be missing. Equal values may be shown once. Read-outs that look alike come from different tables or passages of the source.

What was measured:
[1] = Drug concentration in monkey brain and plasma after daily oral administration for 91 days; type: in vivo, cynomolgus monkeys; settings: 10 mg/kg oral once a day for 91 days
Procedure: Compound of formula (I) was orally given to 3 female cynomolgus monkeys by gavage once a day for 91 days. The volume of administration was 5 mL/kg, and the vehicle was an aqueous solution of 0.5% (w/v) methylcellulose (cps 400) and 1% (w/v) Tween 80. The Compound of formula (I) dose was 10 mg/kg; this dose level was assessed in this study to be the […] no adverse effect level (NOAEL) based on general toxicology evaluation. The animals were necropsied 24 hours after the last dose after an overnight period without food. A sample from brain tissue (left forebrain) was collected from each animal, snap frozen in liquid nitrogen. and stored frozen at <−50° C. Blood samples were taken from the femoral vein into tubes containing K2EDTA, fully inverted approximately 10 times, and placed on crushed wet ice until centrifugation at 2300 g for 10 minutes at approximately 4° C. The resultant plasma was separated, transferred into polypropylene tubes, and frozen at <−50° C. Tissue and plasma samples were transported frozen on dry ice to the respective sites of analysis.
The monkey plasma samples were analyzed for their contents in Compound of formula (I) and N^32-desmethyl-Compound of formula (I) as follows. The plasma samples were fortified in human K2-EDTA plasma (1:9 monkey:human volume ratio) prior to extraction. All solution preparations and dilutions were conducted under sodium vapor light and in “low-binding” quality polypropylene tubes and deep-well plates. The analytes and internal standards (^13CD6-Compound of formula (I) and D7-N^32-desmethyl-Compound of formula (I)) were extracted by protein precipitation with 5M aqueous urea (40 μL for 50 μL plasma), and then analyzed by LC-MS/MS. Chromatographic separation was achieved on an Synergi Polar-RP, 80A, 4 μm 75×2.00 mm column (Phenomenex) with gradient elution using a mixture of 0.1% formic acid in water as eluent A and 0.1% formic acid in acetonitrile as eluent B (5% B from 0 to 0.50 min, 42% B at 4.5 min, 95% B from 4.60 min to 5.50 min, 5% B at 5.60 min, 100% B at 5.70 min, 5% B at 6.40 min, 100% B at 6.50 min, 5% B at 7.00 min; 800 μl/min, 70° C.). Detection was accomplished with a AB Sciex 6500+ mass spectrometer utilizing electrospray MS/MS in positive ion multiple reaction monitoring mode (MRM). The lower limits of quantification for Compound of formula (I) and N^32-desmethyl-Compound of formula (I) were 5.00 ng/mL and 2.50 ng/mL, respectively.
The monkey brain tissue samples were analyzed for their contents in Compound of formula (I) and N^32-desmethyl-Compound of formula (I) as follows. Tissue samples were homogenized in human plasma (1 mg tissue for 10 μL plasma) at +4° C. using a Precelly Evolution system. The analytes (Compound of formula (I) and N^32-desmethyl-Compound of formula (I)) were extracted by protein precipitation with methanol/acetonitrile (9:1, v:v) containing the internal standards (^13CD6-Compound of formula (I) and D7-N^32-desmethyl-Compound of formula (I)) and then analyzed by UHPLC-MS/MS. Chromatographic separation was achieved on a HSS T3 1.8 μm, 2.1×100 mme column (Waters) with gradient elution using a mixture of 0.1% formic acid in water as eluent A, and 0.1% formic acid in acetonitrile as eluent B (20% B from 0 to 0.50 min, 90% B from 1.80 min to 2.30 min, 20% B at 2.60 min; 0.6 mL/min, room temperature). Detection was accomplished with Xevo TQ-S mass spectrometer (Waters) utilizing electrospray MS/MS in positive ion multiple reaction monitoring mode (MRM). The lower limits of quantification for Compound of formula (I) and N^32-desmethyl-Compound of formula (I) were 55.00 ng/g tissue and 22.00 ng/g tissue, respectively.

[2] = CSF and matching plasma concentrations in glioma patients (clinical trial Arms A and B); type: in vivo, human
Procedure: In the clinical trial described in Example 9, cerebrospinal fluid (CSF) stabilized with formic acid 0.5% and matching plasma samples collected on K2 EDTA were drawn from 3 patients of Arm A on day 11 of cycle 1 (i.e. 2 patients at 150 mg and 1 patient at 200 mg of Study drug) and 1 patient of Arm B on Week 3 day 1 (i.e. Day 15 after daily doses of Study drug at 90 mg).
Study drug (parent, active moiety) and its active metabolite N^32-desmethyl-Study drug were measured using LC-MS/MS methods. Results were provided in ng per mL of plasma or CSF, and then converted to nmol/L using the molecular weights of the Study drug (511.45 g/mol) and N^32-desmethyl-Study drug (497.42 g/mol).
(§1) Thus, the unbound (or free fraction) of the Study Drug and the N^32-desmethyl-Study drug are calculated.
In CSF, the total protein concentration varies between 0.2% and 0.5% of the total protein concentration of blood (H. Reiber, Clinica Chimica Acta, 2001; Schilde L M et al., PLoS ONE, 2018), therefore the concentration measured in CSF essentially corresponds to the free fraction of the compounds.
For each of the 4 patients, the ratio CSF/plasma of a given compound (Study drug parent or metabolite) was calculated using the CSF concentration of said compound (in nmol/L) and the unbound or free fraction of said compound in plasma (in nmol/L).

[3] = test system: plasma proteins; assay: Binding to plasma proteins; type: in vitro ADME
Procedure: as §1

[4] = Plasma and brain concentrations (PK) in healthy mice after oral dosing; type: in vivo, Nu/Nu mice; settings: for Kp at 72 h: brain/plasma
Procedure: Healthy male Nu/Nu mice were treated orally with either (i) a single dose of 30 mg/kg Compound of formula (I) ([…], 3 mice per time-point), (ii) 30 mg/kg of Compound of formula (I) given once a day for four consecutive days (27 mice in total, 3 mice per time-point), (iii) 30 mg/kg of AZD-1775 (adavosertib, purchased from Combi-Blocks, San Diego, USA) given twice a day for three consecutive days and once on day four (27 mice in total, 3 mice per time-point), (iv) or 80 mg/kg of Zn-c3 (purchased from EOS Med Chem, Jina City, China) given once a day for four consecutive days (27 mice in total, 3 mice per time-point). The doses used for each compound have previously been reported as active dose levels. Compound of formula (I) was formulated as a suspension in 0.5% methylcellulose with 1% Tween 80 and administered at a concentration of 3.0 mg/mL. […] The dosing volume of all formulations was 10 mL/kg. At designated time-points the mice were euthanized by carbon dioxide inhalation, blood samples were collected by cardiac puncture into K2EDTA containing tubes. The tubes were inverted several times, placed on ice and centrifuged within 30 min of collection (4° C. for 5 min at 6000 rpm) to obtain plasma. The plasma samples were snap frozen in dry ice and stored at −80° C. until analysis. The brain was collected, weighed and snap frozen in dry ice until further analysis. To obtain brain homogenates, firstly water was added to each brain (brain weight:water volume=1:4) then the brain was homogenized with a H-speed dispersator (time procedure: homogenizing for 10 s and interval of 10 s per time, total 3-5 times; cleaning procedure for dispersator: Water-Methanol-Ethanol-Water, 10 s each). The brain homogenate samples were transferred to individual tubes and stored at −80° C. prior to analysis. The mouse plasma and brain samples were analysed as follows. For each analytical batch of plasma and brain samples, the standard and quality control (QC) samples were freshly prepared in blank male Nu/Nu mouse plasma (with K2EDTA anticoagulant) and brain homogenate. To an aliquot of each standard, QC, control blank and study samples, internal standard (^13CD6-Compound of formula (I) for Compound of formula (I), terfenadine for AZD-1775 and Zn-c3) in methanol/acetonitrile (1:1, v/v) was added. The samples were mixed for 1 minute and centrifuged at 4000 rpm at 4° C. for 15 minutes. Supernatants were transferred and diluted in MeOH/water (1:1, v/v, with 0.1% FA) prior to LC-MS/MS injection. Chromatographic separation was achieved on an Shimadzu LC-20AD using a Kinetex 2.6μ C18 100A column (50 mm*3.00 mm) for Compound of formula (I) and AZD-1775 samples and a ACE 5 C4 column (50 mm*2.1 mm) for Zn-c3 samples with gradient elution using the following conditions: flow rate: 0.7 mL/min; run time: 3.0 min; mobile phase: A: 5 mM NH4OAc (0.1% FA), B: Acetonitrile (0.1% FA). Detection was accomplished with an AB Sciex 5500 utilizing electrospray MS/MS in positive ion multiple reaction monitoring mode (MRM). The MRM channels were 511.29/98 for Compound of formula (I), 501.47/442.20 for AZD-1775 and 527.36/468.10 for Zn-c3. The MRM channels of internal standard were 518.17/102.10 (^13CD6-Compound of formula (I)) for Compound of formula (I), 472.40/436.40 (terfenadine) for AZD-1775 and Zn-c3. The measured plasma and brain concentrations at each time-point, the nominal sample collection time, and intended dosages were used for pharmacokinetic analysis. The PK parameters of all study compounds were determined by non-compartmental analysis using WinNonlin Version 8.0 (Pharsight).

[5] = Arm A, 150 mg, day 11 of cycle 1, listed as N^32-desmethyl-Study drug
[6] = Arm A, 200 mg, day 11 of cycle 1
[7] = Arm B, 90 mg daily, Week 3 day 1 (Day 15)
[8] = 30 mg/kg, bid for 3 days and once on day 4, oral, day 4

**Q.** What does the source list for `Cc1cc(Nc2ncc3c(n2)N(C)CN(c2c(Cl)cccc2Cl)C3=O)ccc1C1CCNCC1` [N^32-Desmethyl-Compound of formula (I)]?
**A.** Mean brain:plasma ratio (±SD), at 24 h post last dose (n = 3) [1]: 0.73 ± 0.21; Brain:plasma concentration ratio, at 24 h post last dose ([1]; individual animals): 0.49 and 0.81 and 0.88; Plasma concentration at 24 h post last dose ([1]; individual animals): 531 ng/mL and 233 ng/mL and 365 ng/mL; Brain concentration at 24 h post last dose ([1]; left forebrain, individual animals): 258 ng/g tissue and 188 ng/g tissue and 323 ng/g tissue; CSF/plasma ratio ([2]; 4 patients, Arms A and B): about 5%; CSF concentration [2, 5]: 0.23 nmol/L and 0.26 nmol/L; CSF to “unbound plasma” ratio [2, 5]: 0.06 and 0.05; Raw data concentration in CSF [2, 5]: 0.114 ng/mL and 0.128 ng/mL; Raw data concentration in plasma [2, 5]: 17.7 ng/mL and 15.6 ng/mL; Unbound plasma concentration [2, 5]: 4.59 nM and 4.05 nM; CSF concentration [2, 6]: 0.31 nmol/L; CSF to “unbound plasma” ratio [2, 6]: 0.05; Raw data concentration in CSF [2, 6]: 0.154 ng/mL; Raw data concentration in plasma [2, 6]: 23.2 ng/mL; Unbound plasma concentration [2, 6]: 6.02 nM; CSF concentration [2, 7]: 0.61 nmol/L; CSF to “unbound plasma” ratio [2, 7]: 0.05; Raw data concentration in CSF [2, 7]: 0.302 ng/mL; Raw data concentration in plasma [2, 7]: 42.8 ng/mL; Unbound plasma concentration [2, 7]: 11.10 nM; Active metabolite in plasma as share of Study drug parent ([2]; patient plasma): about 10%; Bound to plasma proteins [3]: 87.1%

**Q.** With `C=CCn1c(=O)c2cnc(Nc3ccc(N4CCN(C)CC4)cc3)nc2n1-c1cccc(C(C)(C)O)n1` [AZD-1775, adavosertib, reference compound] as the molecule, how does the “AUCInf, brain” value [4, 8] read?
**A.** The value was 99.7 ng·h/g.

**Q.** What about the “AUCLast, brain” value [4, 8] of the same molecule?
**A.** Its value is 94.5 ng·h/g.

**Q.** And the “Cmax, brain” value [4, 8]?
**A.** Its value is 53.9 ng/g.

**Q.** What about the Kp at 72 h ([4]; male, Nu/Nu, mouse, po, 30 mg/kg, bid for 3 days and once on day 4, oral, day 4, read-out: Brain to plasma ratio based on AUCInf) of the same molecule?
**A.** Its Kp at 72 h is 0.051.

**Q.** What about the Kp at 72 h ([4]; male, Nu/Nu, mouse, po, 30 mg/kg, bid for 3 days and once on day 4, oral, day 4, read-out: Brain to plasma ratio based on AUCLast) of the same molecule?
**A.** Its Kp at 72 h is 0.048.

**Q.** What about the Kp at 72 h ([4]; male, Nu/Nu, mouse, po, 30 mg/kg, bid for 3 days and once on day 4, oral, day 4, read-out: Brain to plasma ratio based on Cmax) of the same molecule?
**A.** Its Kp at 72 h is 0.043.

**Q.** What about the Cmax ([4]; male, Nu/Nu, mouse, plasma, po, 30 mg/kg, bid for 3 days and once on day 4, oral, day 4) of the same molecule?
**A.** Its Cmax is 1260 ng/mL.

**Q.** And the AUC(0-inf) ([4]; male, Nu/Nu, mouse, plasma, po, 30 mg/kg, bid for 3 days and once on day 4, oral, day 4, read-out: AUCInf, plasma)?
**A.** The AUC(0-inf) was 1960 ng·h/mL.

**Q.** And the AUC(0-t) ([4]; male, Nu/Nu, mouse, plasma, po, 30 mg/kg, bid for 3 days and once on day 4, oral, day 4, read-out: AUCLast, plasma)?
**A.** The AUC(0-t) was 1950 ng·h/mL.

**Q.** Which “AUCInf, brain” value ([4]; mouse, in vivo, po, 80 mg/kg) does the source give for `C=CCn1c(=O)c2cnc(Nc3ccc(N4CCN(C)CC4)cc3)nc2n1-c1ccc2c(n1)[C@@](O)(CC)CC2` [Zn-c3, reference compound] here?
**A.** The value was 878 ng·h/g.

**Q.** What about the “AUCInf, plasma” value ([4]; mouse, in vivo, po, 80 mg/kg) of the same molecule?
**A.** The value was 14180 ng·h/mL.

**Q.** What about the “AUCLast, brain” value ([4]; mouse, in vivo, po, 80 mg/kg) of the same molecule?
**A.** The value was 396 ng·h/g.

**Q.** What about the “AUCLast, plasma” value ([4]; mouse, in vivo, po, 80 mg/kg) of the same molecule?
**A.** The value was 14179 ng·h/mL.

**Q.** What about the “Brain to plasma ratio based on AUCInf” value ([4]; mouse, in vivo, po, 80 mg/kg) of the same molecule?
**A.** Its value is 0.062.

**Q.** What about the “Brain to plasma ratio based on AUCLast” value ([4]; mouse, in vivo, po, 80 mg/kg) of the same molecule?
**A.** The value was 0.028.

**Q.** And the “Brain to plasma ratio based on Cmax” value ([4]; mouse, in vivo, po, 80 mg/kg)?
**A.** Its value is 0.035.

**Q.** And the “Cmax, brain” value ([4]; mouse, in vivo, po, 80 mg/kg)?
**A.** Its value is 97.2 ng/g.

**Q.** What about the “Cmax, plasma” value ([4]; mouse, in vivo, po, 80 mg/kg) of the same molecule?
**A.** Its value is 2773 ng/mL.
